Test results from ChEMBL document CHEMBL1201862, “PubChem BioAssay data set” (2004).
Active and inactive are the calls of the source.

What was measured:
[1] = inhibitors of firefly luciferase expression or activity, dose response, H4 neuroglioma cells, luminescence (AID 1990); type: functional, cell-based
[2] = cytotoxicity in HEK-293T cells, dose response, cytotoxicity control for TCR NF-kB inhibitor project, luminescence, T-cell screen hits (AID 489026); type: functional, cell-based;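 also: cells exposed to compound about 14 hours before the viability readout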
[3] = target: T1, Delta-type opioid receptor (Homo sapiens, UniProt P41143); experiment: HTS Image-Based Screen for Antagonists of the DOR Receptor. [Related pubchem assays (depositor defined):AID1777, AID1785, AID1786, AID2133]; type: functional
T1 sequence (P41143 whole entry): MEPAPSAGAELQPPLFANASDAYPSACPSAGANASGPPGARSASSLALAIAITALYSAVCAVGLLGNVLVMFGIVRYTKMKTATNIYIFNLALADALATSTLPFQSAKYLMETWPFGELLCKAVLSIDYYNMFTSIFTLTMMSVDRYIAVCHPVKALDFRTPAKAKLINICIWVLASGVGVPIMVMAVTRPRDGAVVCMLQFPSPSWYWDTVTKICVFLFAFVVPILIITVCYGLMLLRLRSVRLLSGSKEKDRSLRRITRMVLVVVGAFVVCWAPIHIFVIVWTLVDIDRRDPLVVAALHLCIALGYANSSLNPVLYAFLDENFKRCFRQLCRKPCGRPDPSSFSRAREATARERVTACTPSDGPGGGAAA

[4] = Shn3 3'UTR reporter inhibitors, dose response, cell-based, Clone20 osteoblasts, firefly luciferase, cherry-picked (AID 624132); type: functional;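 also: firefly luciferase luminescence from reporter carrying the Shn3 3'UTR in osteoblasts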
[5] = inhibitors of SNCA 5'UTR-driven reporter translation, confirmation, H4 neuroglioma cells, luminescence (AID 1988); type: functional, cell-based
Beta Lactamase = Beta Lactamase (Pseudomonas aeruginosa, UniProt Q932Y6); experiment: beta-lactamase reporter inhibitor potency, dose response, artefact control for TLR9-MyD88 binding inhibitor project, BLA reporter cells, FRET fluorescence (AID 588341); type: cell-based;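 also: cell based assay in CHO-K1 cells stably expressing beta-lactamase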
Sequence of Beta Lactamase (Q932Y6 whole entry): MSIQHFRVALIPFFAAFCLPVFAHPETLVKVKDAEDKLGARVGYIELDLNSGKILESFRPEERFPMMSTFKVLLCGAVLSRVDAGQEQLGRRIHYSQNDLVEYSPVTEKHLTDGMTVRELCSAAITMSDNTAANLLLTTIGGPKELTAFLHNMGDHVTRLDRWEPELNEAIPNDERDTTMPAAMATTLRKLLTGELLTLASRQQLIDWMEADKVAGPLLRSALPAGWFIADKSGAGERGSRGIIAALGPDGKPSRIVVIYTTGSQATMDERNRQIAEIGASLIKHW

Beta-galactosidase [6] = target: T2, Beta-galactosidase (Escherichia coli, UniProt Q8VNN2); type: functional
T2 sequence (Q8VNN2 whole entry): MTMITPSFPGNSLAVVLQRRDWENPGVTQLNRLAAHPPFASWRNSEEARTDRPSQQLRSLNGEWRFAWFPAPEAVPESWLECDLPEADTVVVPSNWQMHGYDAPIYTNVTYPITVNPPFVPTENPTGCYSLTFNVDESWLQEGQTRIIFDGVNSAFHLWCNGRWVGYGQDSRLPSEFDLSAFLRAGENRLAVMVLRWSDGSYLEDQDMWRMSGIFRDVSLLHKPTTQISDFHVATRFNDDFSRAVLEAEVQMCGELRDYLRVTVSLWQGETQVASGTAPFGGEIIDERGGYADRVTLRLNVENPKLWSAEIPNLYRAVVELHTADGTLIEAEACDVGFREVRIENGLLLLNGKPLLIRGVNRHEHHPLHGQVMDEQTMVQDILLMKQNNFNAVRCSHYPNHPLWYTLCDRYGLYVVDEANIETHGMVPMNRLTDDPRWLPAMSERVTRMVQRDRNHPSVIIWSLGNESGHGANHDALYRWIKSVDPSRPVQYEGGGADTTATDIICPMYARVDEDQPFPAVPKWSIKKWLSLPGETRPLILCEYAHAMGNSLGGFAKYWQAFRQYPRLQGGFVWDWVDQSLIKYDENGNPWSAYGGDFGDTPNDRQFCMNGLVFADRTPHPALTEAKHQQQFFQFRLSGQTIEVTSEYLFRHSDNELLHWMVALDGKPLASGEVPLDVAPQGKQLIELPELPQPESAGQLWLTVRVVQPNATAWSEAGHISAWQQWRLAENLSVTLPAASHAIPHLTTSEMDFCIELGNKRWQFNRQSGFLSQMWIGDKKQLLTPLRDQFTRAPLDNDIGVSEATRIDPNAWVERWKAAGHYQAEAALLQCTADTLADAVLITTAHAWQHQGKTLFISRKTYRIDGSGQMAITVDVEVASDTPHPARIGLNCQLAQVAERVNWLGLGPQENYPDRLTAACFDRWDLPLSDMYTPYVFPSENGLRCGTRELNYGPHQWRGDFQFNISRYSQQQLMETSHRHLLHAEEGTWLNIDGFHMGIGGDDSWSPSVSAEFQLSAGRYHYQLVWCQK

[7] = growth suppression of beta-catenin-knockout colon cells, dose response, cell-based, HCT116, human colon tumor (AID 1045); type: functional;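 also: HCT116 colon tumor cells with beta catenin knocked out; cells exposed to compound for 60 hours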
[8] = target: T1, Delta-type opioid receptor; experiment: HTS Image-Based Screen for Agonists of the DOR Receptor. [Related pubchem assays (depositor defined):AID1777, AID1786, AID2133]; type: functional
fMet-Leu-Phe receptor = target: T3, fMet-Leu-Phe receptor (Homo sapiens, UniProt P21462); experiment: FPR ligands, dose response (AID 519); type: functional
T3 sequence (P21462 whole entry): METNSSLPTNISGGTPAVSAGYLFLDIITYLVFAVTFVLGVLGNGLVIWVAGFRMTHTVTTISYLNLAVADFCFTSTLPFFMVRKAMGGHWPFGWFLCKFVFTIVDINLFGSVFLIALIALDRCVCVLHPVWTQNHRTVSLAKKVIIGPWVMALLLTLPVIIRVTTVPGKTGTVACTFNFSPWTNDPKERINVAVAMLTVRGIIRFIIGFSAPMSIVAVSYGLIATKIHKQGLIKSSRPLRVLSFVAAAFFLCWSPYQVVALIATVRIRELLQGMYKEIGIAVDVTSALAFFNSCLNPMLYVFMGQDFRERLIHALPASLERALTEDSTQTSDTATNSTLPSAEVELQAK

[9] = HepG2 cell cytotoxicity, dose response, cytotoxicity control for Shn3 inhibitor project, CellTiter-Glo, cherry-picked (AID 624134); type: functional, cell-based
[10] = tested on: Streptococcus sp. 'group A'; experiment: growth inhibition of control SK(-) GAS strain, dose response, counter-screen for streptokinase expression inhibitor project, luminescence, kanamycin, BacTiterGlo, confirmation (AID 1900); type: functional, organism-based
[11] = target: T4, Kappa-type opioid receptor (Homo sapiens, UniProt P41145); type: functional
T4 sequence (P41145 whole entry): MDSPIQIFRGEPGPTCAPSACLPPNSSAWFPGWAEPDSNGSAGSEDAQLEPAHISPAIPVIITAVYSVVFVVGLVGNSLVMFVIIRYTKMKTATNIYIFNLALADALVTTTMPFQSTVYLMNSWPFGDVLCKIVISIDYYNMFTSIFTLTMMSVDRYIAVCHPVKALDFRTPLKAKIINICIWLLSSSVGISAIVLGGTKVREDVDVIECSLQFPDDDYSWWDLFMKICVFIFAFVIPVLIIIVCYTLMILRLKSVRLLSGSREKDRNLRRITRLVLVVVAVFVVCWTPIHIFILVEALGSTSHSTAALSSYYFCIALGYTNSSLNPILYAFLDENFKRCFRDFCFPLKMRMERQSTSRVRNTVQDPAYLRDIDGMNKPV

Streptococcus = experiment: Group A Streptococcus viability loss, dose response, counter-screen for streptokinase expression inhibitor project, luminescence, BacTiterGlo (AID 1915); type: functional, organism-based;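 also: potency for reduction of bacterial viability or growth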
[12] = target: T4, Kappa-type opioid receptor; type: functional; remark: listed apart in the source
CHO = experiment: cytotoxicity in TLR9-MyD88 CHO cells, dose response, cytotoxicity control for TLR9-MyD88 binding inhibitor project, cell-based, luminescence (AID 588339); type: functional, hamster; conditions: Cricetulus griseus;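 also: CHO cells stably coexpressing TLR9 and MyD88 fusions from primary screen; compound exposure lasted 48 hours before viability readout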
[13] = Luminescence Cell-Based Dose Response HTS to Identify Inhibitors of 5'UTR Stem-Loop Driven Prion Protein mRNA Translation in H4 Neuroglioblastoma Cells. [Related pubchem assays: 1827 (Project Summary), 1813 (Primary HTS)]; type: functional
Streptokinase A = target: T5, Streptokinase A (Streptococcus pyogenes serotype M1, UniProt P10520); experiment: S. pyogenes streptokinase expression inhibitors, potency, dose response, plasminogen activation absorbance, OD405 (AID 1914); type: functional, Streptococcus pyogenes M1 GAS;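 also: secreted streptokinase activity via plasminogen activation per viability signal from cell pellet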
T5 sequence (P10520 whole entry): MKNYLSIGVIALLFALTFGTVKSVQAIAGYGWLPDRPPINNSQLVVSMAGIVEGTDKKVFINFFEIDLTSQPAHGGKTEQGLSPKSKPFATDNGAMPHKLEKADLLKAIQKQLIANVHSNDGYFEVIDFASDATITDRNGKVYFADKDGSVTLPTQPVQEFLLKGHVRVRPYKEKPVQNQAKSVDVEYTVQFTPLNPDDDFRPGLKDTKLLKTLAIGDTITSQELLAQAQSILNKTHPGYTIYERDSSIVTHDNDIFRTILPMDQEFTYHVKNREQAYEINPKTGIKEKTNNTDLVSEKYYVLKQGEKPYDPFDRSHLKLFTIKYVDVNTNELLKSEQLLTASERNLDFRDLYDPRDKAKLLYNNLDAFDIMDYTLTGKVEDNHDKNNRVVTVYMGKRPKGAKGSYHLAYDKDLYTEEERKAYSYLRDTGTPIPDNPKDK

[14] = control 3'UTR Renilla luciferase suppression, dose response, counter-screen for Shn3 inhibitor project, cell-based, Clone20-Shn3RL, cherry-picked (AID 624133); type: functional
[15] = growth suppression of PTEN-null colon cells, dose response, cell-based, HCT116 PTEN knockout (AID 1047); type: functional;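 also: HCT116 colon tumor cells with PTEN knocked out; cells exposed to compound for 60 hours before readout; potency for loss of cell viability measured by luminescence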
Mu-type opioid receptor = Mu-type opioid receptor (Homo sapiens, UniProt P35372); experiment: HTS Image-Based Screen for Agonists of the MOR Receptor. [Related pubchem assays (depositor defined):AID1777, AID1785, AID1786, AID2133]; type: functional;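 also: imaging of beta-arrestin GFP recruitment into spots after receptor activation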
Sequence of Mu-type opioid receptor (P35372 whole entry): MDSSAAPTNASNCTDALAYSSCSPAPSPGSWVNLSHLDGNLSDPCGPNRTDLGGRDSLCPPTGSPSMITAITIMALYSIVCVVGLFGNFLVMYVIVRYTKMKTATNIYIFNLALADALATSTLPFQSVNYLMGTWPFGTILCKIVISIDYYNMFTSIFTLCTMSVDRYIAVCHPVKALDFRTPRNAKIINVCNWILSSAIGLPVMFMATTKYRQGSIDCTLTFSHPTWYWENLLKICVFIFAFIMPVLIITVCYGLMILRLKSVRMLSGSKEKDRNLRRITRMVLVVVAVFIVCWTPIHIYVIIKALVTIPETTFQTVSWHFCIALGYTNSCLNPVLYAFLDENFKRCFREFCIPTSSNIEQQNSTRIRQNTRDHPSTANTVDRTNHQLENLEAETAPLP

[16] = target: Type-1 angiotensin II receptor (Homo sapiens, UniProt P30556); experiment: AT1 receptor antagonists, dose response, selectivity assay for APJ receptor antagonist project, cell-based, uHTS hits (AID 463214); type: functional;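 also: antagonist potency against angiotensin II stimulated AT1 response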
Sequence of Type-1 angiotensin II receptor (P30556 whole entry): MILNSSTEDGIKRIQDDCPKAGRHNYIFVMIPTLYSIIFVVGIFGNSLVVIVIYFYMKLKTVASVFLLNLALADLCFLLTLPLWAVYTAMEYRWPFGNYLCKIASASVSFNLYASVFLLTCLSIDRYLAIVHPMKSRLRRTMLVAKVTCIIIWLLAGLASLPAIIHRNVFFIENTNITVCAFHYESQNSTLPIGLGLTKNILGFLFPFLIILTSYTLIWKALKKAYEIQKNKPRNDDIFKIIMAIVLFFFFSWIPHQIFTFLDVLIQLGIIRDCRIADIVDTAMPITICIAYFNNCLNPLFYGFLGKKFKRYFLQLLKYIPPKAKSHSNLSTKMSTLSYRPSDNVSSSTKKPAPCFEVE

Beta-galactosidase [17] = target: T2, Beta-galactosidase; experiment: PubChem AID 485352; type: functional
Jurkat [18] = experiment: SAR Analysis of small molecule inhibitors of […] specific antigen receptor-induced NF-kB activation in a Jurkat cell line using a luminescence assay - Set 3. [Related pubchem assays (depositor defined):AID435022, AID435025, AID465]; type: functional, cell-based; conditions: Homo sapiens
HEK293 [19] = experiment: cytotoxicity in HEK293T NF-kB-Luc cells, SAR follow-up, cytotoxicity control for NF-kB activator project, cell-based, resazurin fluorescence (AID 493251); type: functional; conditions: Homo sapiens
HEK293 [20] = experiment: SAR Analysis of small molecule inhibitors of B-cell specific antigen receptor-induced NF-kB activation in a HEK-293T cell line using a luminescence assay - Set 2. [Related pubchem assays (depositor defined):AID435022, AID435025, AID489021]; type: functional, cell-based; conditions: Homo sapiens
[21] = cytotoxicity in HEK-293T NF-kB-Luc cells, dose response, cytotoxicity control for B/T-cell NF-kB inhibitor project, cell-based, uHTS hits (AID 489019); type: functional;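 also: IC50 reflects cytotoxicity as loss of cell viability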
Jurkat [22] = experiment: antigen receptor-induced NF-kB inhibitors, dose response, Jurkat, luciferase reporter, luminescence, B- and T-cell (AID 489004); type: functional, cell-based; conditions: Homo sapiens;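 also: NF-kB luciferase reporter Jurkat cells stimulated with PMA plus ionomycin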
[23] = target: T6, Microphthalmia-associated transcription factor (Homo sapiens, UniProt O75030); experiment: TRPM1 promoter luciferase signal decrease, dose response, MITF inhibitor project, cell-based, SK-MEL-5, cherry-picked, set 3 (AID 493073); type: functional
T6 sequence (O75030 whole entry): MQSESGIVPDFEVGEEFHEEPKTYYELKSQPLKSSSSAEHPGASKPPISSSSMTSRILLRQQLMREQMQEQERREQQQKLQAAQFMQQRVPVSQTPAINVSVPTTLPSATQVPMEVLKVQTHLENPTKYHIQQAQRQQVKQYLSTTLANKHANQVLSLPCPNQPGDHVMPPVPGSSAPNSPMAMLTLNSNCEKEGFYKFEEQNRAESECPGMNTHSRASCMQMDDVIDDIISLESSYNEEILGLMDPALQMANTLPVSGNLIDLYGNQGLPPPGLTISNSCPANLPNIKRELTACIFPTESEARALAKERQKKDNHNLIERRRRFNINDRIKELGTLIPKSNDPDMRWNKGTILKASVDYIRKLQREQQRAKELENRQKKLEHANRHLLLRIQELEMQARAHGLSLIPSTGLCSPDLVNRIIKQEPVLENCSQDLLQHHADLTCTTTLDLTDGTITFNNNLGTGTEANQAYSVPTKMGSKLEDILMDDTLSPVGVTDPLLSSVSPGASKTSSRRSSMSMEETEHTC

[24] = C. albicans growth with fluconazole, confirmation, fluorescence, retest (AID 2467); type: functional, cell-based
[25] = NIH-3T3 fibroblast cytotoxicity, dose response, cytotoxicity control, cell-based, fluorescence, Alamar Blue, secondary assay (AID 2327); type: functional;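 also: NIH-3T3 mouse fibroblasts cultured with fluconazole at 8 µg/mL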
[26] = target: Serine/threonine-protein phosphatase (Candida dubliniensis (strain CD36 / CBS 7987 / NCPF 3949 / NRRLY-17841) (Yeast), UniProt B9W6M3); experiment: calcineurin pathway inhibitors in yeast reporter, dose response, S. cerevisiae, CDRE-lacZ, luminescence, secondary (AID 2388); type: functional, cell-based;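 also: yeast reporter cells carrying a calcineurin-responsive lacZ construct stimulated with calcium chloride; luminescent beta-galactosidase reporter signal in whole cells rather than isolated phosphatase activity; potency for inhibition where a drop in reporter signal means calcineurin blockade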
Sequence of Serine/threonine-protein phosphatase (B9W6M3 whole entry): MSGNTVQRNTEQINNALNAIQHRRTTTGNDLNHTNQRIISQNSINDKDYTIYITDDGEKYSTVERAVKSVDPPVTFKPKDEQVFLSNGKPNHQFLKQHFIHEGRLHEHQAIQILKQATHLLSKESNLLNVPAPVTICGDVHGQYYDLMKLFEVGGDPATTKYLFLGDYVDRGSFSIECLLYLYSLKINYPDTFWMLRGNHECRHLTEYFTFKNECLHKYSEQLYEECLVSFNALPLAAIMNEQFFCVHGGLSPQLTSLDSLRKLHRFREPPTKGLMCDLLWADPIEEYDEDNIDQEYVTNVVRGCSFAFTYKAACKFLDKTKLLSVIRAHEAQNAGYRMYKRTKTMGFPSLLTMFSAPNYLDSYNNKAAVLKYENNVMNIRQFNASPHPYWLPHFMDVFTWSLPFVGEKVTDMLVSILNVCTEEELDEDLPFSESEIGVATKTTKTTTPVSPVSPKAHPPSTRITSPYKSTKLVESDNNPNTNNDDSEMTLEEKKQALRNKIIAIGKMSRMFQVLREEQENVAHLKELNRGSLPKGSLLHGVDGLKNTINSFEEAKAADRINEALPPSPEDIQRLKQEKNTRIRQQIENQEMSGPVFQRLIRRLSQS

[27] = target: ATP-dependent molecular chaperone HSP82 (Candida albicans (strain WO-1) (Yeast), UniProt C4YTQ8); experiment: loss of DOC-induced GRE-beta-galactosidase reporter signal, dose response, Hsp90 inhibitor project, S. cerevisiae, luminescence (AID 2400); type: functional, cell-based;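 also: beta-galactosidase luminescence from glucocorticoid response element reporter as proxy for Hsp90 function; inhibitor potency where signal loss means Hsp90 inhibition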
Sequence of ATP-dependent molecular chaperone HSP82 (C4YTQ8 whole entry): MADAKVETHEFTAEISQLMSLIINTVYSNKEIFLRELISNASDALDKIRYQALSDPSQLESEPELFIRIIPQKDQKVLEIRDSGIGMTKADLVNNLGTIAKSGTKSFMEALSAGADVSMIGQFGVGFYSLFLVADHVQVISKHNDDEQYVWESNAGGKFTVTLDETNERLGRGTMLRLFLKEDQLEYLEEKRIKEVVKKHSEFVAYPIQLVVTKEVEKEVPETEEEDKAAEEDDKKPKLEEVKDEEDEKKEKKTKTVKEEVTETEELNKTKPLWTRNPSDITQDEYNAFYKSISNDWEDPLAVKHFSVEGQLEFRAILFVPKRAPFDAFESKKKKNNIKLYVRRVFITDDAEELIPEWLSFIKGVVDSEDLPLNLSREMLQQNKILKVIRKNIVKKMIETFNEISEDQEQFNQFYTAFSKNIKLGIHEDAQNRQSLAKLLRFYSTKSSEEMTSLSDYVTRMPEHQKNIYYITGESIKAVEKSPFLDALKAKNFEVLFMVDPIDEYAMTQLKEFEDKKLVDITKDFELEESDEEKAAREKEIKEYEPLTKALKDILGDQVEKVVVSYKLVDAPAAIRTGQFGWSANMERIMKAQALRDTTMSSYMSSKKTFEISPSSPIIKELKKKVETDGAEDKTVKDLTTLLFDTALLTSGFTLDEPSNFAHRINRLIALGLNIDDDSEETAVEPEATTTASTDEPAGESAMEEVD

SMILES: O=S(=O)(Nc1cccc2ncccc12)c1cccs1
- EC50 [1]: 15.3 µM (active)
- IC50 [2]: > 80 µM (inactive)
- IC50 [3]: > 32 µM (inactive)
- AC50 [4]: 4.3 µM (active)
- EC50 [5]: 11.8 µM (active)
- IC50 (Beta Lactamase): > 49.7 µM (inactive)
- EC50 (Beta-galactosidase [6]): > 31.5 µM (inactive)
- EC50 [7]: 1.62 µM (active)
- EC50 [8]: > 32 µM (inactive)
- Ki (fMet-Leu-Phe receptor): > 66.7 µM (inactive)
- AC50 [9]: 6.33 µM (active)
- EC50 [10]: 3.58 µM (active)
- IC50 [11]: > 32 µM
- EC50 (Streptococcus): 7.13 µM (active)
- IC50 [12]: 2.64 µM (active)
- IC50 (CHO): 4.34 µM (active)
- EC50 [13]: 7.05 µM (active)
- EC50 (Streptokinase A): > 150 µM (not active)
- AC50 [14]: 13.2 µM (active)
- EC50 [15]: 1.97 µM (active)
- EC50 (Mu-type opioid receptor): > 32 µM (inactive)

SMILES: Cc1ccc(C(=O)CNc2ccccc2)cc1
- IC50 [16]: 9.14 µM (active)
- EC50 (Beta-galactosidase [17]): > 40 µM (inactive)

SMILES: CCOc1ccc(-c2nc(CSCC(=O)NCc3cccnc3)c(C)o2)cc1
- IC50 (Jurkat [18]): 72.6 µM (inactive)
- IC50 (HEK293 [19]): 65 µM (inactive)
- IC50 (HEK293 [20]): 24.2 µM (inactive)

SMILES: COc1cc([N+](=O)[O-])cc(/C=N/NC(=O)c2ccc(NC(=O)c3ccc(C)cc3)cc2)c1O
- EC50 [1]: 2.62 µM (active)
- IC50 [21]: > 80 µM (inactive)
- EC50 [5]: 1.88 µM (active)
- IC50 (Jurkat [22]): 6.36 µM (active)
- AC50 [23]: 1.55 µM (active)
- EC50 [13]: 2.62 µM (active)
- EC50 [24]: 1.49 µM (active)
- EC50 [25]: 1.01 µM (inconclusive)

SMILES: CCOc1ccc(NC(=O)c2cn(-c3ccc(OCC)cc3)c(=O)c3cc(OC)c(OC)cc23)cc1
- EC50 [26]: > 180 µM (inactive)
- EC50 [27]: > 160 µM (inactive)
- EC50 [24]: 0.789 µM (active)
- EC50 [25]: > 160 µM (inconclusive)
